Laboratory results published in publication PMC5563081, “Modulating Protein-Protein Interactions of the Mitotic Polo-like Kinases to Target Mutant KRAS” (Cell Chemical Biology, 2017).
Where “and” joins values, the source holds several entries; their conditions need not be identical. Identical values can stand only once. Like-named read-outs stand apart in the source and are kept apart here.

What was measured:
Panc-1 = assay: Cell viability (SRB), Panc-1; assay type: cell-based, human; conditions: Homo sapiens, PANC-1, 72 h; for GI50: read-out: Abs GI50
Method: SW48 Parental, SW48 G12D, Panc-1, HPAF-II, Panc 02.03 and Panc 05.04 cell lines were seeded overnight at 5000 cells per well in a 96 well plate in recommended media (ATCC). Compounds were added the following day and viability was measured at 72h using the sulforhodamine B (SRB) colorimetric assay as follows. Cells were fixed by replacing media with 1% v/v Trichloroacetic Acid (TCA) (Sigma-Aldrich) at 4°C and incubated for 1h also at 4°C. Wells were washed thoroughly with copious amounts of deionised water before staining with Sulforhodamine B (SRB) (Sigma-Aldrich) solution (0.057% w/v in 1% v/v Acetic Acid (VWR)) for 30 min. Stain was aspirated and wells washed with several changes of 1% v/v Acetic Acid until unbound stain was removed, before air-drying. Bound stain was solubilized with 100μl / well 10mM Tris (pH 8.0) (Trizma Base (121.1) Sigma-Aldrich) with agitation for 10 min. Fluorescence intensity was recorded at Ex540nm / Em590nm using a BMG Pherastar Plus plate reader ([Vichai and Kirtikara, 2006]).
Pancreatic organoids were extracted and cultured as detailed above ([Boj et al., 2015]). In brief, pancreatic organoids were seeded at 600 cells per well in a 96 well plate and allowed to grow for 7 days with media replenishment on the 3rd day. Full-grown organoids were then treated with compounds for 72h and viability determined using CellTitre Glo 3D assay (Promega). For viability assays with c-MET siRNA, cells were reverse transfected in a 6 cm dish using Dharmafect 1 (GE Dharmacon) per manufacturer’s instructions. On the following day, cells were trypsinised and plated onto 96 well plates or 6 well plates. The 96 well plates were treated with a dose range of compounds or DMSO, and viability was determined via SRB colorimetric assay. Cells in the 6 well plates were collected at the end of experiment to corroborate knockdown of c-MET by Western blotting.
Cells were reverse-transfected with 50nM (SW48 parental, SW48 KRAS G12D and Panc-1) or 25nM (HeLa Flp-In T-REx parental cells) siRNA using Dharmafect (GE Dharmacon) as manufacturer’s recommendations. Where transfected cells were subsequently treated with compounds, the cells were allowed to settle overnight and then treated with compound at the indicated concentration the following day. Viability was assessed after 72 hrs, with the SRB colorimetric assay. Knockdown efficiencies were determined by Western blot or RT-qPCR. Oligos against the following target sequences were used. c-MET (Qiagen): […], […], […]. PLK1 (Qiagen): […]. PLK2 (SMARTpool; Dharmacon): ACACAGAAGGAGAACGAUA, CAUCAAUGAGGAUAGGAUA, CUGCCUAGUGUUACUGAUA, ACAAAGUCUACGCCGCAAA. PLK3 (SMARTpool; Dharmacon): GCGAGAAGAUCCUAAAUGA, GCAAGUGGGUUGACUACUC, GCACAUCCGUUGGCCAUCA, GACCUCAAGUUGGGAAAUU. PLK4 (Qiagen): […].

PLK1 PBD = PLK1 PBD (Homo sapiens, UniProt P53350); assay: Fluorescence polarisation (FP) assay, PLK1 PBD; assay type: binding; set-up: PLK1 PBD (aa345-603) 84nM; GST (N, cleaved yes); made in house; host or cells: E. coli C41
Method: Final concentrations of assay components used in binding assays were as follows: TAMRA-labelled consensus PLK1 PBD binding phosphopeptide, 5-TAMRA-MAGPMQS(pThreonine)PLMGAKK-acid 10nM; PLK1 PBD (aa345-603) 84nM (2.5ng/μl). Assays were carried out in PBS (pH 7.4) plus 0.03% tween. DMSO controls were run alongside all experimental compounds and % inhibition normalised to these controls. Compounds were titrated 2 fold from a top concentration of 250μM giving a maximum final concentration of DMSO in the assay of 0.25%; however the assay can tolerate DMSO up to 5%. Compound and PBD protein were incubated together at 22°C for 1 hour prior to addition of the TAMRA labelled binding phosphopeptide. The total assay volume per well was 45μl. All experiments were performed in NBS black 384-well microtiter plates (Corning). Fluorescence Polarisation (FP) was read using a BMG PheraStar plate reader with a 540/590/590nm FP module and unbound 10nm TAMRA-labelled peptide set to a FP value of 35mP.

PLK1 PBD, sequence (P53350 345-603): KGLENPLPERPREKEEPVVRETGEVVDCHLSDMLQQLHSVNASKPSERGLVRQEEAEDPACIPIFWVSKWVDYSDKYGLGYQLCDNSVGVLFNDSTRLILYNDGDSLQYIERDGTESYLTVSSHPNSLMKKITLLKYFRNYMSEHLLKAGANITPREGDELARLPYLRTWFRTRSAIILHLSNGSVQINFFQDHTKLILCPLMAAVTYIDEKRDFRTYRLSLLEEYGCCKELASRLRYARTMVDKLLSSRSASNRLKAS

Structure (SMILES) | GI50 (Panc-1; Panc-1, individual compound, 72 hr, Figure 7G) [µM] | IC50 (PLK1 PBD; read-out: IC50, binding of TAMRA-labeled phosphopeptide to PLK1 PBD) | GI50 (Panc-1) [µM] | EC50 (Panc-1; read-out: EC50, % survival, Panc-1, All Stars control siRNA, 72 h) [µM] | EC50 (Panc-1; read-out: EC50, % survival, Panc-1, siMET, 72 h) [µM] | IC50 (PLK1 PBD; IC50, binding of TAMRA-labeled phosphopeptide to PLK1 PBD) [µM]
CN(C)CCNC(=O)c1ccc(-c2ccc(-c3ccc(Cl)cc3)n2-c2ccccc2C(F)(F)F)cc1 [Poloppin-II] | 0.314 | 40.9 µM and 41 µM | – | – | – | –
O=C(O)CCc1ccc(-c2ccc(Br)cc2)n1-c1ccccc1C(F)(F)F [Poloppin] | – | – | 33.4 | 40.4 ± 1.03 | 16.8 ± 1.03 | 26.9
